Experimental data published in US20250230193A1, “CYCLIC COMPOUND HAVING SELECTIVE KRAS INHIBITORY EFFECT ON HRAS AND NRAS” (CHUGAI SEIYAKU KABUSHIKI KAISHA, priority 2022, published 2025).
Where a SMILES comes first, the peptide text is derived from it. Bridges are numbered along the chain shown (N, C = ends). [ ]: non-standard residue; d: D form. The star is where a group is joined. hPhe(3-Cl-4-CF3) = N[C@@H](CCc1ccc(C(F)(F)F)c(Cl)c1)C(=O)O; NPrPhe(4-CF3) = CCCN[C@@H](Cc1ccc(C(F)(F)F)cc1)C(=O)O; hPhe(3,4-Cl2) = N[C@@H](CCc1ccc(Cl)c(Cl)c1)C(=O)O; NMeAbu(4,4,4-F3) = CN[C@@H](CC(F)(F)F)C(=O)O; NMeGly(cPent) = CN[C@H](C(=O)O)C1CCCC1; Gly(cBu) = N[C@H](C(=O)O)C1CCC1; NMeD = CN[C@@H](CC(=O)O)C(=O)O; NMeL = CN[C@@H](CC(C)C)C(=O)O; Morpholide = C1CN(*)CCO1; NMeA = CN[C@@H](C)C(=O)O; Ac5c = NC1(C(=O)O)CCCC1; Aze = O=C(O)[C@@H]1CCN1; Sar = CNCC(=O)O

Experiments:
[1] = target: GDP-bound HRAS wild-type protein (Homo sapiens, UniProt P01112); test: Binding to HRAS by surface plasmon resonance (SPR), Single Cycle Kinetics; details: for HRAS/KRAS (ratio of KD for GDP-bound HRAS wild-type to KD for KRAS) / HRAS/KRAS (ratio of KD value with respect to HRAS to KD value with respect to KRAS): SPR; for HRAS/KRAS (ratio of KD value with respect to HRAS to KD value with respect to KRAS): GDP-bound HRAS wild-type vs GDP-bound KRAS wild-type; for HRAS/KRAS (ratio of KD value with respect to GDP-bound HRAS wild-type protein to KD value with respect to KRAS): class symbols
[2] = target: GDP-bound NRAS wild-type protein (Homo sapiens, UniProt P01111); test: Binding to NRAS by surface plasmon resonance (SPR), Single Cycle Kinetics; details: for NRAS/KRAS (ratio of KD for GDP-bound NRAS wild-type to KD for KRAS) / NRAS/KRAS (ratio of KD value with respect to NRAS to KD value with respect to KRAS): SPR; for NRAS/KRAS (ratio of KD value with respect to NRAS to KD value with respect to KRAS): GDP-bound NRAS wild-type vs GDP-bound KRAS wild-type; for NRAS/KRAS (ratio of KD value with respect to GDP-bound NRAS wild-type protein to KD value with respect to KRAS): class symbols
GDP-bound NRAS wild-type protein, sequence (P01111 whole entry): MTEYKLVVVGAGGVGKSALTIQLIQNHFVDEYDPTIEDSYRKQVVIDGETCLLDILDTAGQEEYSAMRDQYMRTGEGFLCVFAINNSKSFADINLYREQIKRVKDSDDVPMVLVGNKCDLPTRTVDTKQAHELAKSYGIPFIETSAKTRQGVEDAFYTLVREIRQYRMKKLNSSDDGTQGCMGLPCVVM

GDP-bound HRAS wild-type protein, sequence (P01112 whole entry): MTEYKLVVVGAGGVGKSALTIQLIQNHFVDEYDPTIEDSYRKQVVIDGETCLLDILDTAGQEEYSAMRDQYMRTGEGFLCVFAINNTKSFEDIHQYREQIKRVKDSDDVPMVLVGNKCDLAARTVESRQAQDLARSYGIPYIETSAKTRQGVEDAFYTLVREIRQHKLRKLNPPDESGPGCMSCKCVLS

`CCCN1C(=O)[C@@H]2CCN2C(=O)[C@H](C)N(C)C(=O)[C@H]([C@@H](C)CC)NC(=O)[C@H](CC(F)(F)F)N(C)C(=O)C[C@@H](C(=O)N2CCOCC2)N(C)C(=O)[C@H](C2CCCC2)N(C)C(=O)C2(CCCC2)NC(=O)[C@@H]2CCCN2C(=O)[C@H](CCc2ccc(C(F)(F)F)c(Cl)c2)NC(=O)CN(C)C(=O)[C@@H]1Cc1ccc(C(F)(F)F)cc1` [PP0191] ([NMeAbu(4,4,4-F3)]I[NMeA][Aze][NPrPhe(4-CF3)][Sar][hPhe(3-Cl-4-CF3)]P[Ac5c][NMeGly(cPent)][NMeD]-Morpholide; lactam N-11) was tested, and the “HRAS/KRAS (ratio of KD for GDP-bound HRAS wild-type to KD for KRAS)” value [1] was “B (a compound having 3 or more and less than 10 is denoted as B)” and the “NRAS/KRAS (ratio of KD for GDP-bound NRAS wild-type to KD for KRAS)” value [2] was “C (A compound having a KD ratio of 0.1 or more and less than 3 is denoted as C)”.
In the case of `CCO[C@@H]1C[C@H]2C(=O)NC3(CCC3)C(=O)N(C)[C@@H](C3CCCC3)C(=O)N(C)[C@H](C(=O)N(C)C)CC(=O)N(C)[C@@H](CC3CC3)C(=O)N[C@@H]([C@@H](C)CC)C(=O)N(C)CC(=O)N(C)[C@H]3CCCCCN(C3=O)[C@@H](Cc3ccc(F)cc3)C(=O)N(C)CC(=O)N[C@@H](CCc3cc(F)c(C(F)(F)F)c(F)c3)C(=O)N2C1` [PP1192], the “HRAS/KRAS (ratio of KD value with respect to HRAS to KD value with respect to KRAS)” value [1] is reported as “A (a compound having 10 or more and less than 20 is denoted as A)” and the “NRAS/KRAS (ratio of KD value with respect to NRAS to KD value with respect to KRAS)” value [2] is reported as “B (a compound having 3 or more and less than 10 is denoted as B)”.
For `CCO[C@@H]1C[C@H]2C(=O)NC3(CCC3)C(=O)N(C)[C@@H](C3CCCC3)C(=O)N(C)[C@H](C(=O)N(C)CC)CC(=O)N(C)[C@@H](CC3CCC3)C(=O)N[C@@H]([C@@H](C)CC)C(=O)N(C)CC(=O)N(C)[C@H]3C/C=C\CCN(C3=O)[C@@H](Cc3ccc(C(F)(F)F)cc3)C(=O)N(C)CC(=O)N[C@@H](CCc3ccc(C(F)(F)F)c(Cl)c3)C(=O)N2C1` [PP2826], the “HRAS/KRAS (ratio of KD value with respect to GDP-bound HRAS wild-type protein to KD value with respect to KRAS)” value [1] was “A (a compound having 10 or more and less than 20 is denoted as A)” and the “NRAS/KRAS (ratio of KD value with respect to GDP-bound NRAS wild-type protein to KD value with respect to KRAS)” value [2] was “A (a compound having 10 or more and less than 20 is denoted as A)”.
In the case of `CCCN1C(=O)CN(C)C(=O)[C@@H]2CCN2C(=O)[C@H](C2CCC2)NC(=O)[C@H](CC(C)C)N(C)C(=O)C[C@@H](C(=O)N2CCOCC2)N(C)C(=O)[C@H](C2CCCC2)N(C)C(=O)C2(CCCC2)NC(=O)[C@@H]2CCCN2C(=O)[C@H](CCc2ccc(C(F)(F)F)c(Cl)c2)NC(=O)CN(C)C(=O)[C@@H]1Cc1ccc(C(F)(F)F)cc1` [PP0305] ([NMeL][Gly(cBu)][Aze][Sar][NPrPhe(4-CF3)][Sar][hPhe(3-Cl-4-CF3)]P[Ac5c][NMeGly(cPent)][NMeD]-Morpholide; lactam N-11), the “HRAS/KRAS (ratio of KD for GDP-bound HRAS wild-type to KD for KRAS)” value [1] is reported as “C (A compound having a KD ratio of 0.1 or more and less than 3 is denoted as C)” and the “NRAS/KRAS (ratio of KD for GDP-bound NRAS wild-type to KD for KRAS)” value [2] is reported as “B (a compound having 3 or more and less than 10 is denoted as B)”.
`CCCN1C(=O)CN(C)C(=O)CN(C)C(=O)[C@H]([C@@H](C)CC)NC(=O)[C@H](CC(C)C)N(C)C(=O)C[C@@H](C(=O)N2CCOCC2)N(C)C(=O)[C@H](C2CCCC2)N(C)C(=O)C2(CCCC2)NC(=O)[C@@H]2CCCN2C(=O)[C@H](CCc2ccc(Cl)c(Cl)c2)NC(=O)CN(C)C(=O)[C@@H]1Cc1ccc(C(F)(F)F)cc1` [PP0232] ([NMeL]I[Sar][Sar][NPrPhe(4-CF3)][Sar][hPhe(3,4-Cl2)]P[Ac5c][NMeGly(cPent)][NMeD]-Morpholide; lactam N-11) was tested, and the “HRAS/KRAS (ratio of KD for GDP-bound HRAS wild-type to KD for KRAS)” value [1] was “B (a compound having 3 or more and less than 10 is denoted as B)” and the “NRAS/KRAS (ratio of KD for GDP-bound NRAS wild-type to KD for KRAS)” value [2] was “B (a compound having 3 or more and less than 10 is denoted as B)”.
In the case of `CCC(CC)[C@H]1C(=O)N(C)[C@H](C(=O)N(C)C)CC(=O)N(C)[C@@H](COC)C(=O)N[C@@H]([C@@H](C)CC)C(=O)N(C)CC(=O)N(C)[C@H]2C/C=C\CCN(C2=O)[C@@H](Cc2ccc(C(F)(F)F)cc2)C(=O)N(C)CC(=O)N[C@@H](CCc2ccc(Cl)c(Cl)c2)C(=O)N2C[C@H](OC3CCC3)C[C@H]2C(=O)NC2(CC(C)(C)C2)C(=O)N1C` [PP2642], the “HRAS/KRAS (ratio of KD value with respect to GDP-bound HRAS wild-type protein to KD value with respect to KRAS)” value [1] is reported as “A (a compound having 10 or more and less than 20 is denoted as A)” and the “NRAS/KRAS (ratio of KD value with respect to GDP-bound NRAS wild-type protein to KD value with respect to KRAS)” value [2] is reported as “AA (a compound having 20 or more is denoted as AA)”.
For `CCO[C@@H]1C[C@H]2C(=O)NC3(CCCC3)C(=O)N(C)[C@@H](C3CCCC3)C(=O)N(C)[C@H](C(=O)N3CCOCC3)CC(=O)N(C)[C@@H](CC(C)C)C(=O)N[C@@H]([C@@H](C)CC)C(=O)N(C)CC(=O)N(C)[C@H]3CC(C)=CCN(C3=O)[C@@H](Cc3ccc(C(F)(F)F)cc3)C(=O)N(C)CC(=O)N[C@@H](CCc3cc(F)c(C(F)(F)F)c(F)c3)C(=O)N2C1` [PP1038], the “HRAS/KRAS (ratio of KD value with respect to HRAS to KD value with respect to KRAS)” value [1] was “C (A compound having a KD ratio of 0.1 or more and less than 3 is denoted as C)” and the “NRAS/KRAS (ratio of KD value with respect to NRAS to KD value with respect to KRAS)” value [2] was “C (A compound having a KD ratio of 0.1 or more and less than 3 is denoted as C)”.
